According to paper PMC10608790, “Structural Diversity and Biological Activity of Cyanopeptolins Produced by Nostoc edaphicum CCNP1411” (Marine Drugs, 2023):
Like-named read-outs stand apart in the source and are kept apart here. Blank lines part the entries; values can stand above or below the compound they belong to.

Experiments:
elastase [1] = target: T1, elastase (Sus scrofa, UniProt P00772); experiment: Elastase inhibition assay; type: biochemical; conditions: for IC50: read-out: E (elastase) IC50; for E (elastase) inhibition class: class symbol instead of IC50
T1 sequence (P00772 27-266): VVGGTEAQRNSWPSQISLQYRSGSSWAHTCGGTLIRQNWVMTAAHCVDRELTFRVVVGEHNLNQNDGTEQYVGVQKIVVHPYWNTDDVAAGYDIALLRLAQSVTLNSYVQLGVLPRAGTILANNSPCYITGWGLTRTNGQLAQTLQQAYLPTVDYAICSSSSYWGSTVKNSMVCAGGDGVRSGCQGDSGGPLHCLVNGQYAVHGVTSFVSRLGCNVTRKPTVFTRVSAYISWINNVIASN
Description: (§1) The enzyme inhibitory activity of cyanopeptolins was assayed against trypsin [108], chymotrypsin, thrombin [109], and elastase as described before. In brief, the samples were prepared and serially diluted (1 mg, 1:1—1:10,000 times) in 1% DMSO; the standard inhibitors: aprotinin (trypsin and chymotrypsin) AEBSF 4-(2-aminoethyl)benzenesulfonyl fluoride hydrochloride (thrombin), elastatinal (elastase) (all from Sigma Aldrich; St. Louis, MO, USA) were also prepared in 1% DMSO. DMSO (1%) without the addition of the enzyme served as a negative control. All tests were carried out in triplicates. After the incubation of the assay mixtures, the absorbances were measured at 405 nm (Varioskan Flash Thermo Fisher Scientific OY, Vantaa, Finland). The reduction in enzyme activity greater than 50% was considered as significant.

thrombin = thrombin (Homo sapiens, UniProt P00734); experiment: Thrombin inhibition assay; type: biochemical; conditions: highest concentration in the assay 45 µg × mL−1
Description: as §1

[2] = tested on: human cervical cancer (HeLa) cell line; experiment: MTT assay on HeLa cells; type: cell-based; conditions: 200 µg × mL−1, 24 h
Description: The cytotoxic activity of the selected 17 CPs against the HeLa cervical cancer cell line (Merck KGaA, Darmstadt, Germany) was assessed with the MTT (3-(4,5-dimethylthiazole-2-yl)-2,5-diphenyltetrazolium bromide) assay according to Felczykowska et al.. HeLa cells were seeded at 4 × 10^3 cells per well in DMEM medium (Merck KGaA) supplemented with 10% (v/v) fetal bovine serum (Merck KGaA) and penicillin-streptomycin solution (1% v/v, stock solution 50 u and 0.05 mg × mL^−1, respectively; Merck KGaA). Cells were allowed to attach overnight, and then the tested compounds prepared in 1% DMSO were added. After incubation (24 h), 25 µL of MTT solution (4 mg × mL^−1; Merck KGaA) were added and then the samples were incubated for another 4 h. The formazan crystals were dissolved with 100% DMSO and absorbance was measured with Spectramax i3 (Molecular Deviecs, LLC San Jose, CA, USA). The reduction in cell viability greater than 60% was considered as significant.

breast cancer cell line = tested on: breast cancer cell line; set-up: method as in PMID 29949853; conditions: up to 500 µg × mL−1; cited from earlier work
chymotrypsin [3] = target: T2, chymotrypsin (Bos taurus, UniProt P00766); set-up: method as in PMID 29949853; conditions: results published earlier; read-out: CHY (chymotrypsin) IC50, value marked *; cited from earlier work
breast cancer cells = tested on: breast cancer cells; set-up: method as in PMID 29405541; conditions: cited from earlier work
H-460 lung cancer cells = tested on: H-460 lung cancer cells; set-up: method as in PMID 18163584; conditions: cited from earlier work
[4] = tested on: neuro-2a neuroblastoma cells; set-up: method as in PMID 18163584; conditions: cited from earlier work
[5] = tested on: KB human epithelial carcinoma cells; set-up: method as in PMID 12762794; conditions: cited from earlier work
enzymes = tested on: enzymes; set-up: method as in PMID 20028081; conditions: cited from earlier work
trypsin = target: T3, trypsin (Bos taurus, UniProt P00760); experiment: Trypsin inhibition assay; type: biochemical; conditions: for activity against serine proteases (in words): Arg2-containing CPs lacking the side-chain, Table 1 enzymes; for TRY (trypsin) inhibition class: class symbol instead of IC50
T3 sequence (P00760 24-246): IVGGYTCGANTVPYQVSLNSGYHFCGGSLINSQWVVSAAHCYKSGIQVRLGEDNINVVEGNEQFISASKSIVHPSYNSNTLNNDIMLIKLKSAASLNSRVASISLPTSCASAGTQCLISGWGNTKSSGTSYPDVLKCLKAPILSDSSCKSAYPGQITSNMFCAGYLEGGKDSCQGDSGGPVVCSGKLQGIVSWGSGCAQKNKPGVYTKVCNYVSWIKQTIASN
Description: as §1

chymotrypsin [6] = target: T2, chymotrypsin; experiment: Chymotrypsin inhibition assay; type: biochemical; conditions: class symbol instead of IC50
Description: as §1, with “In” for “The enzyme inhibitory activity of cyanopeptolins was assayed against trypsin [108], chymotrypsin, thrombin [109], and elastase as described before. In”

elastase [7] = target: T1, elastase; set-up: method as in doi:10.1016/j.tet.2019.04.046; conditions: cited from earlier work
HeLa S3 cells = tested on: HeLa S3 cells; set-up: method as in doi:10.1016/j.tet.2019.04.046; conditions: cited from earlier work

Compound: CCCC(=O)NC(CC(=O)O)C(=O)NC1C(=O)NC(CC(C)C)C(=O)NC2CCC(O)N(C2=O)C(Cc2ccccc2)C(=O)N(C)C(Cc2ccccc2)C(=O)NC(C(C)C)C(=O)OC1C (centres unmarked) [CP 919, [Thr + Leu + Ahp + Phe + MePhe + Val]Asp + BA]
- IC50 (elastase [1]): 5.71 µM
- TRB (thrombin) inhibition class (thrombin): − (not active (inhibition below 50%))
- reduction in cell viability versus control [2]: 97.6%

Compound: CC(=O)NC(CC(=O)O)C(=O)NC1C(=O)NC(Cc2ccc(O)cc2)C(=O)NC2CCC(O)N(C2=O)C(Cc2ccccc2)C(=O)N(C)C(Cc2ccccc2)C(=O)NC(C(C)C)C(=O)OC1C (centres unmarked) [CP 941, [Thr + Tyr + Ahp + Phe + MePhe + Val]Asp + Ac]
- E (elastase) inhibition class (elastase [1]): − (not active (inhibition below 50%))
- TRB (thrombin) inhibition class (thrombin): − (not active (inhibition below 50%))

- IC50 (elastase [1]): 3.32 µM
- TRB (thrombin) inhibition class (thrombin): − (not active (inhibition below 50%))
Compound: CCCC(=O)NC(CC(=O)O)C(=O)NC1C(=O)NC(CC(C)C)C(=O)NC2CCC(O)N(C2=O)C(Cc2ccccc2)C(=O)N(C)C(Cc2ccc(OC)cc2)C(=O)NC(C(C)C)C(=O)OC1C (centres unmarked) [CP 949, [Thr + Leu + Ahp + Phe + diMeTyr + Val]Asp + BA]
- reduction in cell viability versus control [2]: 71.5%

Compound: CCCC(=O)N[C@@H](CC(=O)O)C(=O)N[C@@H]1C(=O)N[C@@H](CCCNC(=N)N)C(=O)N[C@H]2CC[C@@H](O)N(C2=O)[C@@H](Cc2ccccc2)C(=O)N(C)[C@@H](Cc2ccccc2)C(=O)N[C@@H](C(C)C)C(=O)O[C@@H]1C [CP 962, [Thr + Arg + Ahp + Phe + MePhe + Val]Asp + BA]
- cytotoxic activity (in words) (breast cancer cell line): no effects were observed

Compound: CCCC(=O)N[C@@H](CC(=O)O)C(=O)N[C@@H]1C(=O)N[C@@H](CCCNC(=N)N)C(=O)N[C@H]2CC[C@@H](O)N(C2=O)[C@@H](Cc2ccccc2)C(=O)N(C)[C@@H](Cc2ccc(O)cc2)C(=O)N[C@@H](C(C)C)C(=O)O[C@@H]1C [CP 978, [Thr + Arg + Ahp + Phe + MeTyr + Val]Asp + BA]
- reduction in cell viability versus control [2]: 62.5%
- IC50 (chymotrypsin [3]): 3.8 µM

- E (elastase) inhibition class (elastase [1]): − (not active (inhibition below 50%))
- TRB (thrombin) inhibition class (thrombin): − (not active (inhibition below 50%))
Compound: CCCC(=O)NC(CC(=O)O)C(=O)NC1C(=O)NC(Cc2ccccc2)C(=O)NC2CCC(O)N(C2=O)C(Cc2ccccc2)C(=O)N(C)C(Cc2ccc(OC)cc2)C(=O)NC(C(C)C)C(=O)OC1C (centres unmarked) [CP 983, [Thr + Phe + Ahp + Phe + diMeTyr + Val]Asp + BA]

Compound: CCCC(=O)N[C@@H](CC(=O)O)C(=O)N[C@@H]1C(=O)N[C@@H](Cc2ccc(O)cc2)C(=O)N[C@H]2CC[C@@H](O)N(C2=O)[C@@H](Cc2ccccc2)C(=O)N(C)[C@@H](Cc2ccc(O)cc2)C(=O)N[C@@H](C(C)C)C(=O)O[C@@H]1C [CP 985, [Thr + Tyr + Ahp + Phe + MeTyr + Val]Asp + BA]
- cytotoxic activity (in words) (breast cancer cell line): no effects were observed

Compound: CCCCCC(=O)NC(CC(=O)O)C(=O)NC1C(=O)NC(CCCNC(=N)N)C(=O)NC2CCC(O)N(C2=O)C(Cc2ccccc2)C(=O)N(C)C(Cc2ccccc2)C(=O)NC(C(C)C)C(=O)OC1C (centres unmarked) [CP 990, [Thr + Arg + Ahp + Phe + MePhe + Val]Asp + HA]
- E (elastase) inhibition class (elastase [1]): − (not active (inhibition below 50%))
- TRB (thrombin) inhibition class (thrombin): − (not active (inhibition below 50%))

- E (elastase) inhibition class (elastase [1]): − (not active (inhibition below 50%))
- TRB (thrombin) inhibition class (thrombin): − (not active (inhibition below 50%))
Compound: CCCC(=O)NC(CC(=O)O)C(=O)NC1C(=O)NC(Cc2ccc(O)cc2)C(=O)NC2CCC(O)N(C2=O)C(Cc2ccccc2)C(=O)N(C)C(Cc2ccc(OC)cc2)C(=O)NC(C(C)C)C(=O)OC1C (centres unmarked) [CP 999, [Thr + Tyr + Ahp + Phe + diMeTyr + Val]Asp + BA]

Compound: C/C=C1\NC(=O)[C@@H](NC(=O)[C@@H](NC(=O)[C@H](C)NC(=O)CCC)[C@@H](C)O)[C@@H](C)OC(=O)[C@H](C(C)C)NC(=O)[C@H](Cc2ccc(O)cc2)N(C)C(=O)[C@H](Cc2ccccc2)N2C(=O)[C@H](CC[C@H]2O)NC1=O [molassamide]
- effect on elastase-mediated migration (in words) (breast cancer cells): inhibiting

Compound: CCCC(=O)N[C@@H](CCC(N)=O)C(=O)N[C@@H]1C(=O)N[C@@H](CCCNC(N)=O)C(=O)N[C@H]2CC[C@@H](O)N(C2=O)[C@@H]([C@@H](C)CC)C(=O)N(C)[C@@H](Cc2ccc(OC)c(Br)c2)C(=O)N[C@@H](C(C)C)C(=O)O[C@@H]1C [symplocamide A]
- cytotoxic effect (in words) (H-460 lung cancer cells): affected
- cytotoxic effect (in words) [4]: affected

Compound: CCCC(=O)N[C@H](C(=O)N[C@@H]1C(=O)N[C@@H](CC(C)C)C(=O)N[C@H]2CC[C@@H](O)N(C2=O)[C@@H](CC(C)C)C(=O)N(C)[C@@H](Cc2ccccc2)C(=O)N[C@@H](C(C)C)C(=O)O[C@@H]1C)C(C)C [tasipeptin A]
- cytotoxic effect (in words) [5]: cytotoxic

Compound: CCCC(=O)N[C@@H]1C(=O)N[C@@H](CC(C)C)C(=O)N[C@H]2CC[C@@H](O)N(C2=O)[C@@H](CC(C)C)C(=O)N(C)[C@@H](Cc2ccccc2)C(=O)N[C@@H](C(C)C)C(=O)O[C@@H]1C [tasipeptin B]
- cytotoxic effect (in words) [5]: cytotoxic

Compound: Micropeptin MZ771
- effect on the activity of enzymes (in words) (enzymes): did not affect the activity of enzymes

Compound: [Thr + Arg + Ahp + Phe + MePhe + Val] [CP 778]
- activity against serine proteases (in words) (trypsin): not active
- TRY (trypsin) inhibition class (trypsin): − (not active (inhibition below 50%))
- CHY (chymotrypsin) inhibition class (chymotrypsin [6]): − (not active (inhibition below 50%))
- E (elastase) inhibition class (elastase [1]): − (not active (inhibition below 50%))
- TRB (thrombin) inhibition class (thrombin): − (not active (inhibition below 50%))

Compound: [Thr + Arg + Ahp + Phe + diMeTyr + Val] [CP 809]
- activity against serine proteases (in words) (trypsin): not active
- TRY (trypsin) inhibition class (trypsin): − (not active (inhibition below 50%))
- CHY (chymotrypsin) inhibition class (chymotrypsin [6]): − (not active (inhibition below 50%))
- E (elastase) inhibition class (elastase [1]): − (not active (inhibition below 50%))
- TRB (thrombin) inhibition class (thrombin): − (not active (inhibition below 50%))

Compound: [Thr + Phe + Ahp + Phe + diMeTyr + Val]Asp + HA [CP 1011]
- TRY (trypsin) inhibition class (trypsin): − (not active (inhibition below 50%))
- CHY (chymotrypsin) inhibition class (chymotrypsin [6]): − (not active (inhibition below 50%))
- E (elastase) inhibition class (elastase [1]): − (not active (inhibition below 50%))
- TRB (thrombin) inhibition class (thrombin): − (not active (inhibition below 50%))

Compound: [Thr + Tyr + Ahp + Phe + MePhe + Val]Asp + OA [CP 1025]
- TRY (trypsin) inhibition class (trypsin): − (not active (inhibition below 50%))
- CHY (chymotrypsin) inhibition class (chymotrypsin [6]): +/− (low activity (inhibition between 50 and 60%))
- E (elastase) inhibition class (elastase [1]): − (not active (inhibition below 50%))
- TRB (thrombin) inhibition class (thrombin): − (not active (inhibition below 50%))

Compound: kyanamide
- IC50 (elastase [7]): 0.00013 µM
- cytotoxic effect (in words) (HeLa S3 cells): moderately cytotoxic
